Test results published in the supplement of paper PMC6723410.

Key:
GUMC-403 [1] = assay: viability at highest tested concentration (max response) relative to DMSO (% of DMSO control); higher = less cytotoxic; details: library / dose series: MIPE library, 11-point 1:3 dilution, 48 h
Method in brief: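 In 1536-well plates, 700 GUMC-403 papilloma cells per well, taken from a patient and grown by conditional reprogramming, were seeded in 5 μL F + Y medium and incubated overnight at 37 °C. Compounds were pinned in at 23 nL in an 11-point 1:3 series, and left for 48 h before CellTiter-Glo luminescence was read on a ViewLux against vehicle (100%) and empty (0%) wells. Reported values are viability at the highest tested concentration relative to vehicle control.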

GUMC-403 [2] = assay: AC50 for reduction of cell viability; higher = less potent; details: 48 h
[3] = library / dose series: MIPE library, 11-point 1:3 dilution

| Compound | viability (GUMC-403 [1]; top concentration 46.1 µM) | AC50 for reduction of cell viability (GUMC-403 [2]; [3]) [µM] | viability (GUMC-403 [1]; top concentration 92.2 µM) | AC50 for reduction of cell viability (GUMC-403 [2]; library / dose series: NPC library, 8-point 1:5 dilution) [µM] |
| --- | --- | --- | --- | --- |
| CC(C)(O)Cn1c(NC(=O)c2ccc(-c3cn[nH]c3)s2)nc2cc(CN3CCOCC3)ccc21 | 5.55 | 2.35 | – | – |
| COc1cccc2cc(-c3nc(C4CCC(C(=O)O)CC4)n4ncnc(N)c34)[nH]c12 (centres undefined) | 59.5 | 0.187 | – | – |
| FC(F)c1nc2ccccc2n1-c1nc(N2CCOCC2)nc(N2CCOCC2)n1 | 71.9 | 0.418 | – | – |
| CNC(=O)[C@H](Cc1ccccc1)NC(=O)[C@H](CC(C)C)[C@H](CSc1cccs1)C(=O)NO | 68.4 | 5.26 | – | – |
| CC(=O)NCC(=O)N1[C@@H]2CC[C@H]1c1ccc(Nc3ncc(C(F)(F)F)c(NC4CCC4)n3)cc12 | 4.61 | 18.7 | – | – |
| CC[C@@H]1[C@@H](C)O[C@@](O)([C@@H](C)[C@H](O)[C@H](C)[C@H]2OC(=O)/C=C/C=C/[C@H](C)[C@@H]([C@@H](C)[C@@H](O)[C@H](C)[C@@]3(O)C[C@@H](O[C@H]4C[C@H](O)[C@H](O)[C@H](C)O4)[C@H](CC)[C@@H](C)O3)OC(=O)/C=C/C=C/[C@@H]2C)C[C@H]1O[C@H]1C[C@H](O)[C@H](O)[C@H](C)O1 | 8.03 | 26.4 | – | – |
| C[S+](=O)([O-])N1CCN(Cc2cc3nc(-c4cccc5[nH]ncc45)nc(N4CCOCC4)c3s2)CC1 | 55.1 | 0.235 | – | – |
| COC(=O)/C=C/C(=O)OC | 55.3 | 3.72 | – | – |
| CS[C@H]1SC[C@@H]2C(=O)N(C)[C@H](C(C)C)C(=O)OC[C@H](NC(=O)c3cnc4ccccc4n3)C(=O)N[C@H](C)C(=O)N(C)[C@H]1C(=O)N(C)[C@H](C(C)C)C(=O)OC[C@H](NC(=O)c1cnc3ccccc3n1)C(=O)N[C@H](C)C(=O)N2C | 14.4 | 0.0209 | – | – |
| Oc1cccc(-c2nc(N3CCOCC3)c3oc4ncccc4c3n2)c1 | – | 0.762 | 28.3 | – |
| COc1ccc(-c2nc(N3CCOCC3)c3sc(CN(C)c4ncc(C(=O)NO)cn4)cc3n2)cn1 | 44.7 | 1.05 | – | – |
| Cc1ccc(C(N)=O)cc1Nc1nccc(-c2cn(C(C)C)c3cnccc23)n1 | 30 | 8.33 | – | – |
| Cc1n[nH]c2ccc(-c3cncc(OC[C@@H](N)Cc4ccccc4)c3)cc12 | 5.22 | 2.64 | – | – |
| COC[C@H](NC(=O)c1cnc(C)s1)C(=O)N[C@@H](COC)C(=O)N[C@@H](Cc1ccccc1)C(=O)[C@@]1(C)CO1 | 8.89 | 6.62 | – | – |
| CC(C)C[C@H](NC(=O)[C@@H](NC(=O)c1cccc(-c2ccccc2)n1)[C@@H](C)O)B(O)O | 26.3 | 1.87 | – | – |
| CN(C)C1=CC=C(C=C1)C(C2=CC=C(C=C2)N(C)C)=C/3\C=C/C(/C=C3)=[N+](C)C | 4.73 | 14.8 | – | – |
| CN(C)CCCN1c2ccccc2CCc2ccc(Cl)cc21 | 36 | 1.32 | – | – |
| CCn1nnc2c(N3CCOCC3)nc(-c3ccc(NC(=O)Nc4ccc(C(=O)N5CCN(C)CC5)cc4)cc3)nc21 | 54.4 | 0.00935 | – | – |
| O=C1c2ccccc2-[n+]2ccc3c([nH]c4ccccc43)c21 | 3.22 | 4.18 | – | – |
| C[C@@H](Oc1ccc2[nH]nc(/C=C/c3cnn(CCO)c3)c2c1)c1c(Cl)cncc1Cl | 18.4 | 16.6 | – | – |
| CCCCN1CCC(CNC(=O)c2c3n(c4ccccc24)CCCO3)CC1 | 23.8 | 16.6 | – | – |

| Compound | viability (GUMC-403 [1]; top concentration 46.1 µM) | AC50 for reduction of cell viability (GUMC-403 [2]; [3]) [µM] | viability (GUMC-403 [1]; top concentration 92.2 µM) | AC50 for reduction of cell viability (GUMC-403 [2]; library / dose series: NPC library, 8-point 1:5 dilution) [µM] |
| --- | --- | --- | --- | --- |
| Cl.Cl.Fc1ccc(C(OCCN2CCN(CCCc3ccccc3)CC2)c2ccc(F)cc2)cc1 | 67.6 | – | – | 11.9 |
| CCN(CC)CCNC(=O)c1ccc2nc(-c3ccccc3)c(-c3ccc(CN4CCC(n5c(=O)[nH]c6ccccc65)CC4)cc3)nc2c1 | 3.89 | 10.5 | – | – |
| C=CC(=O)Nc1cccc(Oc2nc(Nc3ccc(N4CCN(C)CC4)cc3OC)ncc2Cl)c1 | 65.2 | 0.59 | – | – |
| CNC(=O)c1ccc(Nc2cc(Nc3ccccc3[S+](=O)([O-])C(C)C)c3cc[nH]c3n2)nc1 | 10.4 | 18.7 | – | – |
| Cc1nc(NC(=O)N2CCC[C@H]2C(N)=O)sc1-c1csc(C(C)(C)C)n1 | 30.8 | 10.5 | – | – |
| COC[C@H]1OC(=O)C2=COC3=C2[C@@]1(C)\C4=C(\[C@@H]5CC[C@H](O)[C@@]5(C)C[C@H]4OC(C)=O)C3=O | 57.4 | 4.18 | – | – |
| CC(C)N[C@@H]1CCn2c(=O)[nH]c3cccc(c32)[C@H]1O | 30.4 | 9.35 | – | – |
| COC1=CC=C2/C3=N/CCN3\C(=N/C2=C1OC)NC(=O)C4=CC=CN=C4 | 64.7 | 5.9 | – | – |
| COc1cc2ncnc(Nc3ccc(F)c(Cl)c3)c2cc1OCCCN1CCOCC1 | – | 0.27 | 58.7 | – |
| O=C(Nc1cc(C(F)(F)F)cc(C(F)(F)F)c1)c1cc(Cl)ccc1O | 70 | 1.48 | – | – |
| COCCn1c2c([n+](Cc3cnccn3)c1C)C(=O)c1ccccc1C2=O | 5.13 | 0.187 | – | – |
| COc1cccc2c1C(=O)c1c(O)c3c(c(O)c1C2=O)C[C@@](O)(C(=O)CO)C[C@@H]3O[C@H]1C[C@H](N)[C@@H](O)[C@H](C)O1 | 48.5 | 2.09 | – | – |
| COc1cc(Nc2ncc(F)c(Nc3ccc4c(n3)N(COP(=O)(O)O)C(=O)C(C)(C)O4)n2)cc(OC)c1OC | 34.2 | 0.935 | – | – |
| C[C@@H]1O[C@@H](O[C@H]2C[C@@H](O)[C@]3(CO)[C@H]4[C@H](O)C[C@]5(C)[C@@H](C6=CC(=O)OC6)CC[C@]5(O)[C@@H]4CC[C@]3(O)C2)[C@H](O)[C@H](O)[C@H]1O | 75.4 | 0.0296 | – | – |
| Cn1cc(CNCC2CCN(c3ncc(C(=O)NO)cn3)CC2)c2ccccc21 | 33.5 | 2.96 | – | – |
| COc1ccc([C@@H]2CNC(=O)C2)cc1OC1CCCC1 | 51 | 2.96 | – | – |
| O=C(NC1CCNCC1)c1n[nH]cc1NC(=O)c1c(Cl)cccc1Cl | 10.5 | 1.05 | – | – |
| CC(=O)[C@]1(O)Cc2c(O)c3c(c(O)c2[C@@H](O[C@H]2C[C@H](N)[C@H](O)[C@H](C)O2)C1)C(=O)c1ccccc1C3=O | 7.29 | 2.35 | – | – |
| CC1(COc2ccc3c(c2)ncn3-c2ccc3cccc(N4CCC(N)CC4)c3n2)COC1 | 51.9 | 0.0105 | – | – |
| OC[C@H]1OC(OC2=CC3=C(C(=C2)O)C(=O)\C(=C/O3)C4=CC=C(O)C=C4)[C@H](O)[C@@H](O)[C@@H]1O (some centres undefined) | 21.4 | 9.35 | – | – |
| CC(=O)SCC(Cc1ccccc1)C(=O)NCC(=O)OCc1ccccc1 (centres undefined) | 42.8 | 1.18 | – | – |
